{"source": "patent US5162361A", "about": "“Method of treating diseases associated with elevated levels of interleukin 1” (priority 1990, dated 1992)", "key": {"IL-1α [1]": {"system": "IL-1α", "assay": "Western blot analysis of secreted protein (IL-1α)", "format": "cell-based, rat", "conditions": "LPS, FIG. 1b"}, "IL-1α [2]": {"system": "IL-1α", "assay": "Western blot analysis of cell associated IL-1α", "format": "cell-based, rat", "conditions": "10 μM pentamidine, LPS, 24 h, FIG. 3", "procedure": "To determine the effect of pentamidine on cellular stores of IL-1, intracellular levels of IL-1 were quantitated by incubating cells with and without 10 μM pentamidine and LPS for 24 hours. At the end of this incubation period, the cells were washed, lysed and the total cellular protein was collected for Western blot analysis. […] This is in agreement with the generally accepted existence of a precursor form of IL-1 with a molecular weight in the range of 31-33 kD (J. Giri et al., J. Immunol. 134, 343 (1985)).\nCells (4×10^6 cells) were oultured with pentamidine (10μM) or dexamethasone (1μM) in media with 10% fetal calf serum (FCS) in the presence or absence of LPS (1 μg/ml) for 24 hours. The cells were washed twice in HBSS and then scraped in homogenizing buffer (HBSS containing 0.1 mM EGTA, 1 mM pmsf, 10 μg/ml leupeptin, 1 KIU/ml aprotinin, pH 7.4). The cell suspension was left on ice for 10 minutes at which time the swollen cells were disrupted by sonication. The nuclei and undisrupted cells were pelleted by centrifugation at 800 rpm for 10 minutes and were discarded. The supernatant was centrifugated at 39,000 rpm for 1 hour at 4° C. After centrifugation, the supernatants containing cytosolic components of the cell was carefully removed and was used as the cytosol fraction. […] Molecular weight references were determined by running one lane with pre-stained molecular weight standards."}, "human IL-1": {"system": "human IL-1", "assay": "IL-1 secretion by human alveolar macrophages (enzyme linked immunosorbant assay)", "format": "cell-based", "conditions": "10^-5 M", "procedure": "(§1) Dose response studies were performed to determine the molar concentration at which pentamidine reduced viability in normal rat macrophages. […] This blockage was shown using an enzyme linked immunosorbant assay with specific antibody to IL-1β.\nFour normal healthy human volunteers were lavaged and their pulmonary macrophages cultured in vitro in the presence of 10^-5 M pentamidine and the IL-1 inducer, lipopolysaccharide. Following 24 hours of incubation, the supernatant fluid was collected and stored at -20° C. for IL-1 determination using an enzyme linked immunosorbant assay with specific antibody to human IL-1."}, "Female B6C3F1 mice": {"system": "Female B6C3F1 mice", "assay": "Endotoxemia: hypothermia and survival after LPS", "format": "in vivo", "procedure": "Female B6C3F1 mice weighing approximately 24 g were dosed with pentamidine (15 mg/kg.; i.v.) at both 24 hours and 1 hour prior to LPS administration (50 mg/kg; i.p.). Temperature response indices (TRI) were determined for the period between time zero and +12 hours in groups of 5 mice. […] Animals used for body temperature measurements were treated identically and on the same day as those animals for which survival was measured, although the survival of these animals is not included in the Table below. Survival data shown in Table 3 is following 24 hours of observation."}, "[3]": {"system": "oxazolone induced hypersensitivity", "assay": "Ear swelling response to oxazolone (delayed-type hypersensitivity)", "format": "in vivo, mice", "conditions": "pentamidine isethionate (heading), epicutaneous at time of oxazolone challenge, FIG. 5", "procedure": "All groups were sensitized with 25 μl of 2.0% oxazolone on day 0 on the shaved dorsal surface of the back. On day 5, each group was treated with 10 μl of pentamidine on each side of the right ear immediately prior to challenge with 10 μl of 0.5% oxazolone on each side of the right ear. The left ear was treated at same time with the oxazolone vehicle (4:1 acetone:olive oil) and in the same manner as the challenged ear. Ear thickness was determined before, 24 and 48 hours after challenge. The concentration of pentamidine for each group was as follows:\nGroup 1--80 μg/ear pentamidine\nGroup 2--40 μg/ear pentamidine\nGroup 3--20 μg/ear pentamidine\nGroup 4--10 μg/ear pentamidine\nGroup 5--5 μg/ear pentamidine\nGroup 6--no treatment (oxazolone positive control)"}, "alveolar macrophage": {"system": "alveolar macrophage", "assay": "Alveolar macrophage viability following 24 hour exposure", "format": "cell-based", "conditions": "concentrations ≤10^-5 M; normal rat macrophages", "procedure": "as §1\nAlveolar macrophage viability was assessed by incubating the cells in RPMI 1640 media with 10% fetal calf serum in the presence of pentamidine at the indicated concentrations. Twenty-four hours later the cells were analyzed for viability using ethidium bromide staining. A minimum of 10,000 cells were analyzed by flow cytometry on a FACSCAN analyzer.\nThese observations have been confirmed using microscopic analysis via trypan blue dye exclusion."}, "tumor necrosis factor [4]": {"system": "tumor necrosis factor", "assay": "Tumor necrosis factor secretion by rat macrophages", "format": "cell-based", "conditions": "pentamidine 10^-5 M, rat macrophages (control 82 units/ml)", "procedure": "(§2) It has also been observed that pentamidine (10^-5 M) blocks the secretion of tumor necrosis factor in rat macrophages (42 units/ml - pentamidine vs. 82 units/ml - control), as well as tumor necrosis factor and IL-6 in human macrophages, where at a concentration of 10^-5 M pentamidine, tumor necrosis factor and IL-6 secretion are suppressed >50%. These additional cytokines are also very influential mediators in inflammatory diseases.\nIn vitro studies were performed by taking alveolar macrophages from normal healthy rat lungs and culturing them in the presence of an imidazoline with the inducer lipopolysaccharide for 24 hours. The standard bioassay for IL-1 was performed (see above)."}, "tumor necrosis factor [5]": {"system": "tumor necrosis factor", "assay": "Tumor necrosis factor secretion by human macrophages", "format": "cell-based", "conditions": "Macrophage, 10^-5 M, read-out: Suppression of tumor necrosis factor secretion", "source_text": "as §2"}, "IL-6": {"system": "IL-6", "assay": "IL-6 secretion by human macrophages", "format": "cell-based", "conditions": "Macrophage, 10^-5 M, read-out: Suppression of IL-6 secretion", "source_text": "as §2"}}, "note": "“Also recorded” adds a separate entry of the source.", "data": [{"smiles": "N=C(N)c1ccc(OCCCCCOc2ccc(C(=N)N)cc2)cc1", "note": "[Pentamidine, 1,5-bis(4-amidinophenoxy)pentane]", "values": [{"measurement": "Secreted IL-1 by Western blot", "setting": "IL-1α [1]", "value": "nearly complete block in the release of the intracellular IL-1; also recorded: lack of a lipopolysaccharide inducible IL-1 band"}, {"measurement": "Cell associated IL-1α (Western blot)", "setting": "IL-1α [2]", "value": "allows proper translation of the protein; also recorded: antiserum to murine IL-1α bound to a protein that migrated to approximately 31 kD"}, {"measurement": "IL-1 (IL-1β) secretion by human macrophages", "setting": "human IL-1; ELISA with specific antibody to IL-1β, result in words", "value": "blocks IL-1 secretion; also recorded: decreased IL-1β release by human macrophages"}, {"measurement": "inhibition at 10 µM", "setting": "human IL-1; Macrophage, 24 h, cumulative over four human subjects, vs. untreated macrophages of same individual, read-out: Suppression in the amount of IL-1 secreted", "value": 62.1, "unit": "%"}, {"measurement": "Temperature response index (TRI)", "setting": "Female B6C3F1 mice; 15 mg/kg i.v. 24 h and 1 h prior to LPS 50 mg/kg i.p. (LPS alone -13.3), P < 0.01", "value": "-8.3 Δ°C"}, {"measurement": "Survival", "setting": "Female B6C3F1 mice; 15 mg/kg i.v. + LPS, 24 hours of observation (LPS alone 0/10), P < 0.01", "value": "10/10"}, {"measurement": "Mean rectal temperature at 12 hours (Tr12hr)", "setting": "Female B6C3F1 mice; 15 mg/kg i.v. + LPS, ± SE (LPS alone 25.3 ± 0.5), P < 0.01", "value": "29.0 ± 2.2", "unit": "°C"}, {"measurement": "Mean rectal temperature at time zero (Tr0)", "setting": "Female B6C3F1 mice; 15 mg/kg i.v. + LPS, ± SE (LPS alone 38.6 ± 0.4)", "value": "37.3 ± 0.4", "unit": "°C"}, {"measurement": "Temperature response index (TRI)", "setting": "Female B6C3F1 mice; 15 mg/kg i.v. at 24 h and 1 h, no LPS (vehicle -1.3)", "value": "-2.4 Δ°C"}, {"measurement": "Survival", "setting": "Female B6C3F1 mice; 15 mg/kg i.v., no LPS, 24 hours of observation (vehicle 10/10)", "value": "9/9"}, {"measurement": "Mean rectal temperature at 12 hours (Tr12hr)", "setting": "Female B6C3F1 mice; 15 mg/kg i.v., no LPS, ± SE (vehicle 36.9 ± 1.4)", "value": "35.0 ± 2.9", "unit": "°C"}, {"measurement": "Mean rectal temperature at time zero (Tr0)", "setting": "Female B6C3F1 mice; 15 mg/kg i.v., no LPS, ± SE (vehicle 38.2 ± 0.1)", "value": "37.4 ± 0.6", "unit": "°C"}, {"measurement": "Hypersensitivity response as measured by ear swelling", "setting": "[3]", "value": "statistically significant (p<0.001) reduction in the hypersensitivity response"}, {"measurement": "Loss in cell viability", "setting": "alveolar macrophage", "value": "No significant loss in cell viability"}, {"measurement": "Tumor necrosis factor secretion", "setting": "tumor necrosis factor [4]", "value": 42, "unit": "units/ml"}, {"measurement": "inhibition at 10 µM", "setting": "tumor necrosis factor [5]", "value": "> 50", "unit": "%"}, {"measurement": "inhibition at 10 µM", "setting": "IL-6", "value": "> 50", "unit": "%"}]}]}
